{
  "source": "patent US20260216181A1",
  "about": "“COMPOSITIONS AND METHODS FOR TREATING CANCER” (Coiled Therapeutics, Inc., priority 2022, published 2026)",
  "key": {"RKO xenograft": {"test_system": "RKO xenograft", "assay": "RKO colon cancer xenograft tumor growth", "type": "in vivo, athymic Balb/c nude mice", "description": "Six-to-eight-week-old female athymic Balb/c nude mice were housed with a temperature-controlled and 12-hour light/12-hour dark cycle environment. For in vivo colon cancer tumor growth, 5×10^6 RKO cells were prepared in 100 μl of DMEM and injected into right flank of female nude mice. Mouse weight and tumor volume were measured twice a week. Tumor volumes were calculated as length×width^2×0.5. Once the tumor volume had reached about 150-175 mm^3, xenografts were randomized into groups (8 mice per group). Animals were treated with vehicle, Compound 80 or oxaliplatin as mentioned in the table. The formulation for vehicle and Compound 80 was 50% PEG400 and 20% Cremophor RH40 final (50% of 40% Cremophor) in Acetate buffer, PH=4. Oxaliplatin was prepared in glucose solution. The mice were sacrificed after around 3 weeks or if the tumors reached a predefined tumor volume cut-off of 2500 mm^3."}, "MDA-MB-231 xenograft": {"test_system": "MDA-MB-231 xenograft", "assay": "MDA-MB-231 xenograft tumor growth", "type": "in vivo, athymic Balb/c nude mice", "settings": "20, 25 and 30 mpk BID", "description": "(§1) Compound 80 was tested in other xenograft models using the following cell lines: triple negative breast cancer cell line, MDA-MB-231, ovarian cancer cell line, SKOV-3 and endometrium cell line, HEC-59. For the SKOV-3 xenograft, 1.5×10^7 SKOV-3 cells in 200 μl of 1:1 DMEM:Matrigel (Thermo Fisher, NJ, USA) and for the MDA-MB-231 xenograft, 1.×10^7 MDA-MB-231 cells in 100 μl of 1:1 DMEM:Matrigel (Thermo Fisher, NJ, USA) for was injected in the right flank of six-to-eight-week-old female athymic Balb/c nude mice. When the tumor volume reached mean of ~200 mm^3 mice for SKOV-3 xenografts and between 150-175 mm^3 for MDA-MB-231 xenografts, mice were randomized in a group of 8, and treatment was initiated vehicle, 20 mpk BID, 25 mpk BID and 30 mpk BID of Compound 80. For the HEC-59 xenografts, 1.×10^7 HEC-59 cells in 100 μl of DMEM (Lonza, NJ, USA) was injected in the right flank of six-to-eight-week-old female athymic Balb/c nude mice. When the tumor volume reached mean of ~150 mm^3 mice were randomized in a group of 8 mice, and treatment was initiated vehicle, 20 mpk BID, 40 mpk QD and 30/40 mpk BID of Compound 80."}, "SKOV-3 xenograft": {"test_system": "SKOV-3 xenograft", "assay": "SKOV-3 xenograft tumor growth", "type": "in vivo, athymic Balb/c nude mice", "settings": "20, 25 and 30 mpk BID", "description": "as §1"}, "HEC-59 xenograft": {"test_system": "HEC-59 xenograft", "assay": "HEC-59 xenograft tumor growth", "type": "in vivo, athymic Balb/c nude mice", "settings": "20 mpk BID, 40 mpk QD, 30/40 mpk BID", "description": "as §1"}, "[1]": {"test_system": "glioblastoma (GBM) xenografts", "settings": "Polson et al., 2018; cited from earlier work"}, "[2]": {"settings": "Wurdak et al., 2010; cited from earlier work"}, "neuronal differentiation": {"test_system": "neuronal differentiation", "settings": "rats; Wurdak et al., 2010; cited from earlier work"}, "ovarian cancer cells": {"test_system": "ovarian cancer cells", "settings": "Yao et al., 2014; cited from earlier work"}, "[3]": {"test_system": "ovarian cancer xenografts", "settings": "Yao et al., 2014; cited from earlier work"}},
  "data": [
    {"smiles": "C[C@@H]1CN(c2ncc(F)c(Nc3cc(-c4ccc(OC(F)F)cc4)cnn3)n2)C[C@H](C)O1", "note": "[Compound 80, 5-(4-(difluoromethoxy)phenyl)-N-(2-((2R,6S)-2,6-dimethylmorpholino)-5-fluoropyrimidin-4-yl)pyridazin-3-amine]", "values": [
      {"measurement": "tumor growth inhibition", "setting": "RKO xenograft; RKO xenograft, 20 and 30 mg/kg BID, 50 mg/kg QD, PO", "result": "strong tumor growth inhibition in a dose-dependent manner"},
      {"measurement": "tumor growth inhibition compared to the standard of care (FIG. 1)", "setting": "RKO xenograft; xenograft model, vs standard of care", "result": "superior tumor growth inhibition"},
      {"measurement": "tumor growth inhibition or regression", "setting": "MDA-MB-231 xenograft", "result": "Statistically significant tumor growth inhibition or regression"},
      {"measurement": "tumor growth inhibition or regression", "setting": "SKOV-3 xenograft", "result": "Statistically significant tumor growth inhibition or regression"},
      {"measurement": "tumor growth inhibition or regression", "setting": "HEC-59 xenograft", "result": "Statistically significant tumor growth inhibition or regression"}
    ]},
    {"smiles": "CC(C)CNc1ccnc(NCc2csc(-c3ccccc3)n2)n1", "note": "[KHS101]", "values": [
      {"measurement": "tumor growth of glioblastoma (GBM) xenografts", "setting": "[1]", "result": "suppressed"},
      {"measurement": "oral systemic stability", "setting": "[2]", "result": "low oral systemic stability"},
      {"measurement": "neuronal differentiation", "setting": "neuronal differentiation", "result": "promote neuronal differentiation"}
    ]},
    {"smiles": "CCN(Cc1ccncc1)Cc1c(O)ccc2c(-c3cc4ccccc4oc3=O)cc(=O)oc12", "note": "[SPL-B]", "values": [
      {"measurement": "centrosome microtubule nucleation", "setting": "ovarian cancer cells", "result": "inhibit the centrosome microtubule nucleation"},
      {"measurement": "tumor growth in ovarian cancer xenografts", "setting": "[3]", "result": "suppress tumor growth"}
    ]}
  ]
}
